{
  "source": "patent US20010011084A1",
  "about": "“USE OF ESTROGEN TO MODIFY THE AMOUNT OF SEROTONIN TRANSPORTER OR ITS MRNA” (priority 1996, published 2001)",
  "key": {"[1]": {"system": "uterine horns", "test": "Examination of the uterine horns", "format": "in vivo, rat", "settings": "OVX rats, 10 μg s.c., next day"}, "[2]": {"settings": "10 μg EB s.c., for up to 30 h in ovariectomized rats; cited from earlier work"}, "[3]": {"system": "luteinizing hormone (LH)", "test": "Plasma r-LH in trunk blood by radioimmunoassay", "format": "in vivo, rat", "settings": "presumptive proestrus, OVX rats, 10 μg s.c., mean±sem, n=7"}},
  "data": [
    {"smiles": "C[C@]12CC[C@@H]3c4ccc(OC(=O)c5ccccc5)cc4CC[C@H]3[C@@H]1CC[C@@H]2O", "note": "[EB, estradiol benzoate]", "values": [
      {"measurement": "uterine horns", "setting": "[1]", "result": "markedly distended with fluid"},
      {"measurement": "blood levels of E2", "setting": "[2]", "result": "100-120 pg E2/ml"},
      {"measurement": "Plasma r-LH levels", "setting": "[3]", "result": "7.5 ± 3.1", "unit": "ng/mL"}
    ]}
  ]
}
